Measurements: patent publication US20260250318A1, “COMPOSITIONS AND METHODS FOR CROSSING THE BLOOD BRAIN BARRIER” (VOYAGER THERAPEUTICS, INC., priority 2022, published 2026)

Assays:
[1] = system: brains, heart, liver, muscle, and DRG of the NHPs; experiment: Maturation of TTM-001 and TTM-002 capsids, NGS enrichment in NHP tissues; format: in vivo; conditions: relative to AAV9 control
Summary of the method: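 Variants carry mutations within and flanking the loop IV peptide insert: positions 450–466 were triplet-randomized, while positions 449–466 received low-frequency point mutations. The combined pool went into two NHPs, and each peptide was scored by NGS enrichment ratio against AAV9.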

brain = experiment: Matured TTM-001 and TTM-002 variants, NGS enrichment in mouse brain; format: in vivo, mice; conditions: relative to AAV9 control
[2] = NGS fold-enrichment of RNA, NHP brain
[3] = NGS fold-enrichment, DRG of NHPs
[4] = NGS fold-enrichment, NHP liver DNA
[5] = NGS fold-enrichment, NHP liver RNA
[6] = NGS fold-enrichment, NHP muscle
[7] = NGS fold-enrichment, RNA, brain of NHPs
[8] = NGS fold-enrichment, heart of NHPs
[9] = NGS fold-enrichment, liver DNA of NHPs
[10] = NGS fold-enrichment, liver RNA of NHPs
[11] = NGS fold-enrichment, muscle of NHPs
[12] = NGS fold-enrichment, brain of mice
[13] = NGS fold-enrichment, mouse brain
[14] = NGS fold-enrichment of matured AAV capsid variants, NHP brain, RNA

Row | Sequence | Fold Enrichment relative to AAV9, Brain (NHP) [1, 2] [fold] | Fold Enrichment relative to AAV9, DRG (NHP) [1, 3] [fold] | Fold Enrichment relative to AAV9, DRG (NHP) ([1]; NGS fold-enrichment, NHP DRG) [fold] | Fold Enrichment relative to AAV9, Heart (NHP) ([1]; NGS fold-enrichment, NHP heart) [fold] | Fold Enrichment relative to AAV9, Liver DNA (NHP) [1, 4] [fold] | Fold Enrichment relative to AAV9, Liver RNA (NHP) [1, 5] [fold] | Fold Enrichment relative to AAV9, Muscle (NHP) [1, 6] [fold] | Fold Enrichment relative to AAV9, Brain (NHP) [1, 7] [fold] | Fold Enrichment relative to AAV9, Heart (NHP) [1, 8] [fold] | Fold Enrichment relative to AAV9, Liver DNA (NHP) [1, 9] [fold] | Fold Enrichment relative to AAV9, Liver RNA (NHP) [1, 10] [fold] | Fold Enrichment relative to AAV9, Muscle (NHP) [1, 11] [fold] | Fold Enrichment relative to AAV9, Brain (Mouse) (brain; [12]) [fold] | Fold Enrichment relative to AAV9, Brain (Mouse) (brain; [13]) [fold] | also measured
1 | KTERNSGSPHSKAQNQQT | 99.892 | 0.000 | 0.000 | 0.000 | 0.107 | 0.000 | 0.000 | 99.892 | 0.000 | 0.107 | 0.000 | 0.000 | 87.392 | 87.392 | 
2 | KTERPSGSPHSKAQNQQT | 75.669 | 0.000 | 0.000 | 0.029 | 0.156 | 0.000 | 0.000 | 75.669 | 0.029 | 0.156 | 0.000 | 0.000 | 73.894 | 73.894 | 
3 | KTERSSGSPHSKAQNQQT |  | 0.000 |  |  |  |  |  | 74.853 | 0.071 | 0.056 | 1.036 | 0.000 | 125.538 |  | 
4 | KTERTSGSPHSKAQNQQT | 112.957 | 0.000 | 0.000 | 0.009 | 0.207 | 1.128 | 0.000 | 112.957 | 0.009 | 0.207 | 1.128 | 0.000 | 117.374 | 117.374 | 
5 | KTERVSGSPHSKAQNQQT | 96.943 | 0.000 | 0.000 | 0.000 | 0.144 | 0.000 | 0.000 | 96.943 | 0.000 | 0.144 | 0.000 | 0.000 | 135.438 | 135.438 | Fold Enrichment relative to AAV9, Brain (NHP) [1, 14]: 96.943 fold; Fold Enrichment relative to AAV9, DRG (NHP) ([1]; NHP DRG): 0.000 fold; Fold Enrichment relative to AAV9, Heart (NHP) ([1]; NHP heart): 0.000 fold; Fold Enrichment relative to AAV9, Liver DNA (NHP) ([1]; NHP liver, DNA): 0.144 fold; Fold Enrichment relative to AAV9, Liver RNA (NHP) ([1]; NHP liver, RNA): 0.000 fold; Fold Enrichment relative to AAV9, Muscle (NHP) ([1]; NHP muscle): 0.000 fold; Fold Enrichment relative to AAV9, Brain (Mouse) (brain; mouse brain): 135.438 fold
6 | KTESAHDSPHKSGQNQQT | 80.810 |  | 0.000 | 0.039 | 0.000 | 0.000 | 0.000 |  |  |  |  |  |  | 13.338 | 
7 | KTESASGSPHSKAQNQQT |  | 0.000 |  |  |  |  |  | 68.651 | 0.000 | 0.084 | 0.274 | 0.000 | 80.500 |  | 
8 | KTESGHDSPHKSGQNQQT | 86.513 |  | 0.000 | 7.414 | 0.038 | 0.000 | 0.000 |  |  |  |  |  |  | 13.163 | 
9 | KTESHSGSPHSKAQNQQT |  | 0.000 |  |  |  |  |  | 61.947 | 0.000 | 0.106 | 1.480 | 0.000 | 52.506 |  | 
10 | KTESRHDSPHKSGQNQQT | 81.766 |  | 0.000 | 0.011 | 0.036 | 0.052 | 0.000 |  |  |  |  |  |  | 6.975 | 
11 | KTESTSGSPHSKAQNQQT |  | 0.000 |  |  |  |  |  | 66.649 | 0.009 | 0.176 | 1.688 | 0.000 | 95.861 |  | 
12 | KTESWSGSPHSKAQNQQT |  | 0.000 |  |  |  |  |  | 69.144 | 0.000 | 0.019 | 0.000 | 0.000 | 67.699 |  | 
13 | KTETHSGSPHSKAQNQQT | 77.974 | 0.000 | 0.000 | 0.067 | 0.512 | 0.000 | 0.000 | 77.974 | 0.067 | 0.512 | 0.000 | 0.000 | 57.287 | 57.287 | 
14 | KTEVGHDSPHKSGQNQQT | 112.457 |  | 0.000 | 0.011 | 0.138 | 0.000 | 0.000 |  |  |  |  |  |  | 13.125 | 
15 | KTEVTSGSPHSKAQNQQT |  |  |  |  |  |  |  |  |  |  |  |  |  |  | Fold Enrichment relative to AAV9, Brain (NHP) [1, 14]: 54.663 fold; Fold Enrichment relative to AAV9, DRG (NHP) ([1]; NHP DRG): 0.000 fold; Fold Enrichment relative to AAV9, Heart (NHP) ([1]; NHP heart): 0.000 fold; Fold Enrichment relative to AAV9, Liver DNA (NHP) ([1]; NHP liver, DNA): 0.185 fold; Fold Enrichment relative to AAV9, Liver RNA (NHP) ([1]; NHP liver, RNA): 0.323 fold; Fold Enrichment relative to AAV9, Muscle (NHP) ([1]; NHP muscle): 0.000 fold; Fold Enrichment relative to AAV9, Brain (Mouse) (brain; mouse brain): 81.482 fold
16 | KTEYISGSPHSKAQNQQT |  |  |  |  |  |  |  |  |  |  |  |  |  |  | Fold Enrichment relative to AAV9, Brain (NHP) [1, 14]: 57.891 fold; Fold Enrichment relative to AAV9, DRG (NHP) ([1]; NHP DRG): 0.000 fold; Fold Enrichment relative to AAV9, Heart (NHP) ([1]; NHP heart): 0.000 fold; Fold Enrichment relative to AAV9, Liver DNA (NHP) ([1]; NHP liver, DNA): 0.075 fold; Fold Enrichment relative to AAV9, Liver RNA (NHP) ([1]; NHP liver, RNA): 0.076 fold; Fold Enrichment relative to AAV9, Muscle (NHP) ([1]; NHP muscle): 0.000 fold; Fold Enrichment relative to AAV9, Brain (Mouse) (brain; mouse brain): 57.620 fold
17 | KTEYNSGSPHSKAQNQQT |  |  |  |  |  |  |  |  |  |  |  |  |  |  | Fold Enrichment relative to AAV9, Brain (NHP) [1, 14]: 50.256 fold; Fold Enrichment relative to AAV9, DRG (NHP) ([1]; NHP DRG): 0.000 fold; Fold Enrichment relative to AAV9, Heart (NHP) ([1]; NHP heart): 0.000 fold; Fold Enrichment relative to AAV9, Liver DNA (NHP) ([1]; NHP liver, DNA): 0.009 fold; Fold Enrichment relative to AAV9, Liver RNA (NHP) ([1]; NHP liver, RNA): 0.000 fold; Fold Enrichment relative to AAV9, Muscle (NHP) ([1]; NHP muscle): 0.000 fold; Fold Enrichment relative to AAV9, Brain (Mouse) (brain; mouse brain): 62.679 fold
